Data taken from patent publication US20250271426A1, “REDUCTION OF BITTER TASTE OF ACTIVE PHARMACEUTICAL INGREDIENTS AND RELATED ASSAYS AND SCREENING METHODS” (Firmenich Incorporated, priority 2022, published 2025).

Experiments:
Experiment in all cases: FLIPR calcium assay, cells with promiscuous G protein transfected with bitter receptor cDNA
Format in all cases: cell-based
Conditions in all cases: responsive if cellular response of >10% over baseline, Fluo4-AM
[1] = molecular target: T1, T2R receptor SEQ ID NO: 5 (S5) (Homo sapiens, UniProt P59534)
T1 construct: expressed in transfected cells; host or cells: cells expressing a promiscuous G protein (e.g., G16g44)
T1 sequence (P59534 18-338): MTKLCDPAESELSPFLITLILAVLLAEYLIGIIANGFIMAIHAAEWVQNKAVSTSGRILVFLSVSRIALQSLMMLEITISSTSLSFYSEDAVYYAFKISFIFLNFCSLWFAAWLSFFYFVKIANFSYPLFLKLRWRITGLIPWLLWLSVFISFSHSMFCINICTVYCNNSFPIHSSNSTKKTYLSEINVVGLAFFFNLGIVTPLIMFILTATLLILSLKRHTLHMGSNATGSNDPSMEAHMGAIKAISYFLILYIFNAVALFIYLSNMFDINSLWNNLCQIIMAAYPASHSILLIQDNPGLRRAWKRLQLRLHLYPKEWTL
How it was run: (§1)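 Cells carrying promiscuous G protein G16g44 were transfected with a single bitter receptor cDNA each, cultured 28 hours, then loaded with Fluo4-AM for 60 minutes. After washing, agonist addition and intracellular fluorescence were recorded together by FLIPR. A receptor counted as responsive at >10% over baseline.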

[2] = molecular target: T2, T2R receptor SEQ ID NO: 2 (S2) (Homo sapiens, UniProt Q9NYW2)
T2 construct: expressed in transfected cells; host or cells: cells expressing a promiscuous G protein (e.g., G16g44)
T2 sequence (Q9NYW2 1-309): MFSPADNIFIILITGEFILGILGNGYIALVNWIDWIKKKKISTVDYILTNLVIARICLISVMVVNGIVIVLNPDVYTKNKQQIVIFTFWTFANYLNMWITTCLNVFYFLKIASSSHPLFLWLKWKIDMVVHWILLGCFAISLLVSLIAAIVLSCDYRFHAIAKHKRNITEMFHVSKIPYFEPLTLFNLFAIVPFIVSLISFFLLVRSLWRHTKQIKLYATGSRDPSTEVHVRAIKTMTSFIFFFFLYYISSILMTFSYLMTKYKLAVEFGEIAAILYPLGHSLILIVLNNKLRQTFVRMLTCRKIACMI
How it was run: as §1

[3] = molecular target: T3, T2R receptor SEQ ID NO: 3 (S3) (Homo sapiens, UniProt Q9NYW0, T156M)
T3 construct: expressed in transfected cells; host or cells: cells expressing a promiscuous G protein (e.g., G16g44)
T3 sequence (Q9NYW0 1-307 T156M): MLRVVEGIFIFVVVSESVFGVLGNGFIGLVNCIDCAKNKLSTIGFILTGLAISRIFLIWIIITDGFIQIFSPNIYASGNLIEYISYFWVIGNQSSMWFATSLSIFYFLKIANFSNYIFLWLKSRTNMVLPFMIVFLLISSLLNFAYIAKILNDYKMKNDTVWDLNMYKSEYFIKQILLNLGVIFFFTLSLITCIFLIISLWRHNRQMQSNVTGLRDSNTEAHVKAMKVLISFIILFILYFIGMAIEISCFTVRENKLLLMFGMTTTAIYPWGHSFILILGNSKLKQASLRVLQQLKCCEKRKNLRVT
How it was run: as §1

[4] = molecular target: T4, T2R receptor SEQ ID NO: 1 (S1) (Homo sapiens, UniProt Q9NYW7)
T4 construct: expressed in transfected cells; host or cells: cells expressing a promiscuous G protein (e.g., G16g44)
T4 sequence (Q9NYW7 1-299): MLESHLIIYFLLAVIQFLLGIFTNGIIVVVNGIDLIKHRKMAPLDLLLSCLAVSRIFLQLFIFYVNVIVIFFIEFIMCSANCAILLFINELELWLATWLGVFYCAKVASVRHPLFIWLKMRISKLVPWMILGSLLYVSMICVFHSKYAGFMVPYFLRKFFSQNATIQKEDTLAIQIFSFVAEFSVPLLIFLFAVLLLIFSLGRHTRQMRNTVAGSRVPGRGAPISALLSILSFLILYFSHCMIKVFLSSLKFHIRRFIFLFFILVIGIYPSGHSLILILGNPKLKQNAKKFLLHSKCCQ
How it was run: as §1

[5] = molecular target: T5, T2R receptor SEQ ID NO: 6 (S6) (Homo sapiens, UniProt P59540)
T5 construct: expressed in transfected cells; host or cells: cells expressing a promiscuous G protein (e.g., G16g44)
T5 sequence (P59540 1-309): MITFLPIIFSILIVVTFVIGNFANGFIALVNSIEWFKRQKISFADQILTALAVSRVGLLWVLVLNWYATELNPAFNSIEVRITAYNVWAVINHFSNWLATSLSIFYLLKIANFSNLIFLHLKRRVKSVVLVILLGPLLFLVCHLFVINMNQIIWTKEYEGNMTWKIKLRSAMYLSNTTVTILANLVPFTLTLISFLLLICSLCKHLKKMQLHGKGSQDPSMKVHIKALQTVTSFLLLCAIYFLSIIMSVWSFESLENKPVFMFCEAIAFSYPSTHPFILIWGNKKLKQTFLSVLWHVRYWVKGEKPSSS
How it was run: as §1

[6] = molecular target: T6, T2R receptor SEQ ID NO: 4 (S4) (Homo sapiens, UniProt Q9NYV8)
T6 construct: expressed in transfected cells; host or cells: cells expressing a promiscuous G protein (e.g., G16g44)
T6 sequence (Q9NYV8 1-317): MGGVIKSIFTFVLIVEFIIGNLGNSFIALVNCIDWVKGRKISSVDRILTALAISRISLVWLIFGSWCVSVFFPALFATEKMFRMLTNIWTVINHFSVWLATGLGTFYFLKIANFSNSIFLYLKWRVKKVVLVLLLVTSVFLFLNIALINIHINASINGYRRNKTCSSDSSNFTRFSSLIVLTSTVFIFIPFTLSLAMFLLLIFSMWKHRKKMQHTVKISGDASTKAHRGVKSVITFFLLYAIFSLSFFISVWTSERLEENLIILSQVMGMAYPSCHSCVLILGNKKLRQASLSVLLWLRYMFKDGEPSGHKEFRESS
How it was run: as §1

SMILES | S5 positive response of T2R receptor to API [1] | S2 positive response of T2R receptor to API [2] | S3 positive response of T2R receptor to API [3] | S1 positive response of T2R receptor to API [4] | S6 positive response of T2R receptor to API [5] | S4 positive response of T2R receptor to API [6]
O=C(N[C@H](CO)[C@H](O)c1ccc([N+](=O)[O-])cc1)C(Cl)Cl [Chloramphenicol] | + (a “+” to indicate whether a particular T2R receptor showed a positive response to a particular API) | + (a “+” to indicate whether a particular T2R receptor showed a positive response to a particular API) | + (a “+” to indicate whether a particular T2R receptor showed a positive response to a particular API) | + (a “+” to indicate whether a particular T2R receptor showed a positive response to a particular API) | + (a “+” to indicate whether a particular T2R receptor showed a positive response to a particular API) | 
NC(N)=Nc1nc(CSCCC(N)=NS(N)(=O)=O)cs1 [Famotidine] | + (a “+” to indicate whether a particular T2R receptor showed a positive response to a particular API) | + (a “+” to indicate whether a particular T2R receptor showed a positive response to a particular API) | + (a “+” to indicate whether a particular T2R receptor showed a positive response to a particular API) | + (a “+” to indicate whether a particular T2R receptor showed a positive response to a particular API) | + (a “+” to indicate whether a particular T2R receptor showed a positive response to a particular API) | 
CC[N+](C)(CC)CCOC(=O)C(O)(c1ccccc1)C1CCCCC1 (centres unmarked) [Oxyphenonium] | + (a “+” to indicate whether a particular T2R receptor showed a positive response to a particular API) | + (a “+” to indicate whether a particular T2R receptor showed a positive response to a particular API) | + (a “+” to indicate whether a particular T2R receptor showed a positive response to a particular API) | + (a “+” to indicate whether a particular T2R receptor showed a positive response to a particular API) | + (a “+” to indicate whether a particular T2R receptor showed a positive response to a particular API) | 
CCC[C@@H]1C[C@@H](C(=O)N[C@@H]([C@H]2O[C@H](SC)[C@H](O)[C@@H](O)[C@H]2O)[C@H](C)Cl)N(C)C1 [Clinamycin] | + (a “+” to indicate whether a particular T2R receptor showed a positive response to a particular API) | + (a “+” to indicate whether a particular T2R receptor showed a positive response to a particular API) | + (a “+” to indicate whether a particular T2R receptor showed a positive response to a particular API) |  |  | + (a “+” to indicate whether a particular T2R receptor showed a positive response to a particular API)
CC[C@H]1OC(=O)[C@H](C)[C@@H](O[C@H]2C[C@@](C)(OC)[C@@H](O)[C@H](C)O2)[C@H](C)[C@@H](O[C@@H]2O[C@H](C)C[C@H](N(C)C)[C@H]2O)[C@](C)(O)C[C@@H](C)C(=O)[C@H](C)[C@@H](O)[C@]1(C)O [Erythromycin] | + (a “+” to indicate whether a particular T2R receptor showed a positive response to a particular API) | + (a “+” to indicate whether a particular T2R receptor showed a positive response to a particular API) | + (a “+” to indicate whether a particular T2R receptor showed a positive response to a particular API) |  | + (a “+” to indicate whether a particular T2R receptor showed a positive response to a particular API) | 
CN1[C@@H]2CC[C@H]1C[C@@H](OC(=O)C(CO)c1ccccc1)C2 (some centres unmarked) [Atropine] | + (a “+” to indicate whether a particular T2R receptor showed a positive response to a particular API) | + (a “+” to indicate whether a particular T2R receptor showed a positive response to a particular API) | + (a “+” to indicate whether a particular T2R receptor showed a positive response to a particular API) |  | + (a “+” to indicate whether a particular T2R receptor showed a positive response to a particular API) | 
CCOC(=O)[C@H](CCc1ccccc1)N[C@@H](C)C(=O)N1CCC[C@H]1C(=O)O [Enalapril] | + (a “+” to indicate whether a particular T2R receptor showed a positive response to a particular API) | + (a “+” to indicate whether a particular T2R receptor showed a positive response to a particular API) |  | + (a “+” to indicate whether a particular T2R receptor showed a positive response to a particular API) | + (a “+” to indicate whether a particular T2R receptor showed a positive response to a particular API) | + (a “+” to indicate whether a particular T2R receptor showed a positive response to a particular API)
COc1ccccc1OCC(O)CO (centres unmarked) [Guaifenesin] | + (a “+” to indicate whether a particular T2R receptor showed a positive response to a particular API) | + (a “+” to indicate whether a particular T2R receptor showed a positive response to a particular API) | + (a “+” to indicate whether a particular T2R receptor showed a positive response to a particular API) | + (a “+” to indicate whether a particular T2R receptor showed a positive response to a particular API) |  | + (a “+” to indicate whether a particular T2R receptor showed a positive response to a particular API)
COc1cc(Cc2cnc(N)nc2N)cc(OC)c1OC [Trimethoprim] | + (a “+” to indicate whether a particular T2R receptor showed a positive response to a particular API) | + (a “+” to indicate whether a particular T2R receptor showed a positive response to a particular API) | + (a “+” to indicate whether a particular T2R receptor showed a positive response to a particular API) |  | + (a “+” to indicate whether a particular T2R receptor showed a positive response to a particular API) | 
